Data taken from patent US3980794A, “Method for promoting growth of poultry with 3-(5-nitro-2-imidazolyl)pyrazoles” (Eli Lilly and Company, priority 1975, dated 1976).
≈ marks a conversion by molar mass, not a printed value. Where two headings read alike, the source gives them in different places.

What was measured:
[1] = tested on: Bacteroides fragilis sp. fragilis 1877; test: Susceptibility of anaerobic bacteria, agar dilution; format: cell-based; conditions: 24 h, read-out: 24 Hr. Minimum Inhibitory Concentration
[2] = tested on: Peptococcus anaerobius 1428; test: as above; format: cell-based; conditions: 24 h, read-out: 24 Hr. Minimum Inhibitory Concentration
[3] = tested on: Clostridium innocuum 1373; test: as above; format: cell-based; conditions: read-out: 24 Hr. Minimum Inhibitory Concentration
[4] = tested on: Clostridium perfringens 81; test: microbe, parasite or virus in culture; format: cell-based; conditions: Clostridium perfringens, 81, 24 h, read-out: 24 Hr. Minimum Inhibitory Concentration
[5] = tested on: Peptostreptococcus intermedius 1264; test: Susceptibility of anaerobic bacteria, agar dilution; format: cell-based; conditions: 24 h; Peptostreptococcus intermedius 1264; read-out: 24 Hr. Minimum Inhibitory Concentration
[6] = tested on: Bacteroides fragilis sp. thetaiotaomicron 1438; test: as above; format: cell-based; conditions: 24 h, read-out: 24 Hr. Minimum Inhibitory Concentration
[7] = tested on: Propionibacterium acnes 44; test: as above; format: cell-based; conditions: Cutibacterium acnes, 24 h; Propionibacterium acnes 44; read-out: 24 Hr. Minimum Inhibitory Concentration
Actinomyces bovis 13684 = test: as above; format: cell-based; conditions: read-out: 24 Hr. Minimum Inhibitory Concentration
Clostridium ramosum 1313 = test: as above; format: cell-based; conditions: read-out: 24 Hr. Minimum Inhibitory Concentration
[8] = tested on: Bacteroides fragilis sp. fragilis 1936B; test: as above; format: cell-based; conditions: 24 h, read-out: 24 Hr. Minimum Inhibitory Concentration
[9] = tested on: Clostridium septicum 1128; test: as above; format: cell-based; conditions: 24 h, read-out: 24 Hr. Minimum Inhibitory Concentration
[10] = tested on: Clostridium septicum bovine; test: as above; format: cell-based; conditions: 24 h, read-out: 24 Hr. Minimum Inhibitory Concentration
[11] = tested on: Veillonella alcalescens 1; test: as above; format: cell-based; conditions: read-out: 24 Hr. Minimum Inhibitory Concentration
[12] = tested on: Fusobacterium symbiosum 1470; test: as above; format: cell-based; conditions: read-out: 24 Hr. Minimum Inhibitory Concentration
Pasteurella multocida = test: Oral activity against Pasteurella multocida-caused infection in chickens (Experiment 5A); format: in vivo; conditions: 100 g./ton in feed
Procedure: A. Selected examples of the novel compounds were evaluated for their oral activity against Pasteurella multocida-caused infection in chickens. Four to five-week-old chickens were divided into groups of eight, and the compounds administered thereto in the feed. Two replicates were run for each compound. Twenty-four hours after the chickens began receiving the compound in their feed, the treated groups, as well as the nontreated control groups, were challenged intravenously with a broth culture of P. multocida. […] The chicks were observed during seven days following the challenge and the mortality in the treated groups was compared to that of the control group. The heart and liver were removed from each chicken which died during the test and cultured to determine the presence of P. multocida. At the termination of the test, all surviving chickens were sacrificed, the heart and liver removed from each chicken and cultured to determine the presence of P. multocida.

P. multocida = test: Oral activity against P. multocida in turkeys (Experiment 5B); format: in vivo; conditions: 100 g./ton in feed
[13] = [Clostridium] innocuum, 1373, 24 h
[14] = Thomasclavelia ramosa, 1313, 24 h
[15] = Bacteroides fragilis sp. fragilis 1877
[16] = 24 h, Clostridium innocuum 1373
[17] = Bacteroides fragilis sp. thetaiotaomicron 1438
[18] = Thomasclavelia ramosa, 24 h, Clostridium ramosum 1313
[19] = Bacteroides fragilis sp. fragilis 1936B
[20] = Veillonella parvula, 24 h, Veillonella alcalescens 1
[21] = 24 h, Fusobacterium symbiosum 1470

SMILES	MIC ([1]; Bacteroides fragilis) [mg/L]	MIC [2] [mg/L]	MIC [3, 13] [mg/L]	MIC [4] [mg/L]	MIC [5] [mg/L]	MIC ([6]; Bacteroides fragilis) [mg/L]	MIC [7] [mg/L]	MIC (Actinomyces bovis 13684; Actinomyces bovis, 13684, 24 h) [mg/L]	MIC (Clostridium ramosum 1313; [14]) [mg/L]	MIC ([8]; Bacteroides fragilis) [mg/L]	MIC [9] [mg/L]	MIC [10] [mg/L]	MIC ([11]; Veillonella parvula, 1, 24 h) [mg/L]	MIC ([12]; Fusobacterium, 1470, 24 h) [mg/L]	MIC [1, 15] [mg/L]	MIC ([2]; Peptococcus anaerobius 1428) [mg/L]	MIC [3, 16] [mg/L]	MIC [6, 17] [mg/L]	MIC (Actinomyces bovis 13684; 24 h, Actinomyces bovis 13684) [mg/L]	MIC (Clostridium ramosum 1313; [18]) [mg/L]	further results
Cn1nc(-c2ncc([N+](=O)[O-])n2C)c(C(N)=O)c1N [Compound 2, 5-Amino-1-methyl-3-(1-methyl-5-nitro-2-imidazolyl)pyrazole-4-carboxamide]	< 0.125	< 0.125	< 0.125	< 0.125	1 (≈ 3.77 µM)	< 0.125	0.5 (≈ 1.89 µM)	< 0.125	< 0.125	< 0.125	< 0.125	< 0.125	< 0.125	< 0.125	–	–	–	–	–	–	–
CCCCC(CC)COC=Nc1c(C#N)c(-c2ncc([N+](=O)[O-])n2C)nn1C (centres unmarked) [Compound 13D, 2-Ethylhexyl N-[4-cyano-1-methyl-3-(1-methyl-5-nitro-2-imidazolyl)pyrazol-5-yl]formimidate]	–	–	–	1 (≈ 2.58 µM)	16 (≈ 41.3 µM)	–	16 (≈ 41.3 µM)	–	–	–	2 (≈ 5.16 µM)	4 (≈ 10.3 µM)	–	–	2 (≈ 5.16 µM)	2 (≈ 5.16 µM)	1 (≈ 2.58 µM)	1 (≈ 2.58 µM)	1 (≈ 2.58 µM)	1 (≈ 2.58 µM)	MIC [8, 19]: 0.5 mg/L (≈ 1.29 µM); MIC [11, 20]: 0.25 mg/L (≈ 0.645 µM); MIC [12, 21]: 1 mg/L (≈ 2.58 µM)
CC(=O)Nc1c(C(=O)O)c(-c2ncc([N+](=O)[O-])n2C)nn1C [Compound 12, 5-acetamido-1-methyl-3-(1-methyl-5-nitro-2-imidazolyl)pyrazole-4-carboxylic acid]	–	–	–	8 (≈ 26 µM)	32 (≈ 104 µM)	–	> 32	–	–	–	4 (≈ 13 µM)	8 (≈ 26 µM)	–	–	4 (≈ 13 µM)	8 (≈ 26 µM)	8 (≈ 26 µM)	2 (≈ 6.49 µM)	0.5 (≈ 1.62 µM)	4 (≈ 13 µM)	MIC [8, 19]: 16 mg/L (≈ 51.9 µM); MIC [11, 20]: 0.5 mg/L (≈ 1.62 µM); MIC [12, 21]: < 0.125 mg/L
Cn1nc(-c2ncc([N+](=O)[O-])n2C)c(C#N)c1N [Compound 1, 5-Amino-1-methyl-3-(1-methyl-5-nitro-2-imidazolyl)pyrazole-4-carbonitrile]	< 0.125	< 0.125	< 0.125	< 0.125	0.5 (≈ 2.02 µM)	< 0.125	> 32	< 0.125	< 0.125	< 0.125	< 0.125	< 0.125	< 0.125	< 0.125	–	–	–	–	–	–	Culture Isolation P. multocida (Pasteurella multocida; replicate 1): 0/ 8; Survival Ratio (Pasteurella multocida; replicate 1): 8/ 8; Culture Isolation P. multocida (Pasteurella multocida; replicate 2): 1/ 8; Survival Ratio (Pasteurella multocida; replicate 2): 8/ 8; Culture Isolation P. multocida (Pasteurella multocida; total): 1/16; Survival Ratio (Pasteurella multocida; total): 16/16; Culture Isolation P. multocida (P. multocida): 0/5; Survival Ratio (P. multocida): 5/5
C=CCOC=Nc1c(C#N)c(-c2ncc([N+](=O)[O-])n2C)nn1C [Compound 13A, Allyl N-[4-cyano-1-methyl-3-(1-methyl-5-nitro-2-imidazolyl)pyrazol-5-yl]formimidate]	–	–	–	1 (≈ 3.17 µM)	16 (≈ 50.7 µM)	–	> 128	–	–	–	0.5 (≈ 1.59 µM)	0.5 (≈ 1.59 µM)	–	–	0.5 (≈ 1.59 µM)	2 (≈ 6.34 µM)	1 (≈ 3.17 µM)	0.25 (≈ 0.793 µM)	0.5 (≈ 1.59 µM)	4 (≈ 12.7 µM)	MIC [8, 19]: 2 mg/L (≈ 6.34 µM); MIC [11, 20]: < 0.125 mg/L; MIC [12, 21]: < 0.125 mg/L
COC=Nc1c(C#N)c(-c2ncc([N+](=O)[O-])n2C)nn1C [Compound 6, Methyl N-[4-cyano-1-methyl-3-(1-methyl-5-nitro-2-imidazolyl)pyrazol-5-yl]formimidate]	< 0.125	< 0.125	< 0.125	< 0.125	1 (≈ 3.46 µM)	< 0.125	> 32	< 0.125	< 0.125	< 0.125	< 0.125	< 0.125	< 0.125	< 0.125	–	–	–	–	–	–	Culture Isolation P. multocida (Pasteurella multocida; replicate 1): 0/ 8; Survival Ratio (Pasteurella multocida; replicate 1): 8/ 8; Culture Isolation P. multocida (Pasteurella multocida; replicate 2): 0/ 8; Survival Ratio (Pasteurella multocida; replicate 2): 8/ 8; Culture Isolation P. multocida (Pasteurella multocida; total): 0/16; Survival Ratio (Pasteurella multocida; total): 16/16; Culture Isolation P. multocida (P. multocida): 0/5; Survival Ratio (P. multocida): 5/5
CCCCOC=Nc1c(C#N)c(-c2ncc([N+](=O)[O-])n2C)nn1C [Compound 7, Butyl N-[4-Cyano-1-methyl-3-(1-methyl-5-nitro-2-imidazolyl)-pyrazol-5-yl]formimidate]	< 0.125	< 0.125	< 0.125	< 0.125	2 (≈ 6.04 µM)	< 0.125	> 32	< 0.125	< 0.125	< 0.125	< 0.125	< 0.125	< 0.125	< 0.125	–	–	–	–	–	–	Culture Isolation P. multocida (Pasteurella multocida; replicate 1): 2/ 8; Survival Ratio (Pasteurella multocida; replicate 1): 6/ 8; Culture Isolation P. multocida (Pasteurella multocida; replicate 2): 2/ 8; Survival Ratio (Pasteurella multocida; replicate 2): 8/ 8; Culture Isolation P. multocida (Pasteurella multocida; total): 4/16; Survival Ratio (Pasteurella multocida; total): 14/16; Culture Isolation P. multocida (P. multocida): 0/5; Survival Ratio (P. multocida): 5/5
